Test system: lupus nephritis
Assay: Predictability of week 48 partial remission from early reduction in UPCR (Tables 4-8)
Format: in vivo, human
Method: In the study reported in Example 1, the predictability of outcomes based on markers at early time points were determined.
This is important because it is undesirable to subject a patient to unnecessary treatment, even if the treatment is relatively safe.
PR is defined as at least 50% reduction in proteinuria (i.e. UPCR).
Sensitivity is defined as the probability that a subject showing PR at 48 weeks would have shown a favorable result with regard to the marker at the designated early time point. In the tables below, this is the ratio of the number of subjects with favorable marker results (early drop or normalization) to the total subjects with 48 week PR.
Specificity is defined as the probability that a subject not showing PR at 48 weeks would have shown an unfavorable result with regard to the marker at the designated early time point. In the tables below, this is the ratio of the number of subjects with unfavorable marker results (no early drop or no normalization) to the total subjects with no 48 week PR.
Positive predictive value is defined as the probability that a subject showing a favorable result with respect to the marker at an earlier time point would show PR at 48 weeks. In the tables below, this is the ratio of the number of subjects with favorable marker results who have 48 week PR to those with favorable marker results (early reduction or yes column).
Negative predictive value is defined as the probability that a subject showing an unfavorable result with respect to the marker at an earlier time point would not show PR at 48 weeks. In the tables below, this is the ratio of the number of subjects with unfavorable marker results who have no PR at 48 weeks to the total subjects with unfavorable marker results (no early reduction or no column).

[1] = 25% reduction in UPCR, Week 26, 23.7 mg BID
[2] = 25% reduction in UPCR, Week 26, 39.5 mg BID
[3] = 25% reduction in UPCR, Week 36, 23.7 mg BID
[4] = 25% reduction in UPCR, Week 36, 39.5 mg BID
[5] = 25% reduction in UPCR, Week 48, 23.7 mg BID
[6] = 25% reduction in UPCR, Week 48, 39.5 mg BID
[7] = early 30% reduction in UPCR, week 2, 39.5 mg BID
[8] = early 30% reduction in UPCR, week 6, 23.7 mg BID
[9] = early 30% reduction in UPCR, week 8, 23.7 mg BID
[10] = early 30% reduction in UPCR, week 8, 39.5 mg BID
[11] = early 30% reduction in UPCR, week 12, 39.5 mg BID
[12] = early 30% reduction in UPCR, week 16, 23.7 mg BID
[13] = early 30% reduction in UPCR, week 16, 39.5 mg BID
[14] = early 30% reduction in UPCR, week 20, 23.7 mg BID
[15] = early 30% reduction in UPCR, week 24, 23.7 mg BID
[16] = early 30% reduction in UPCR, week 24, 39.5 mg BID
[17] = early 30% reduction in UPCR, week 26, 23.7 mg BID
[18] = early 30% reduction in UPCR, week 26, 39.5 mg BID
[19] = early 30% reduction in UPCR, week 36, 23.7 mg BID
[20] = early 30% reduction in UPCR, week 36, 39.5 mg BID
[21] = early 30% reduction in UPCR, week 48, 23.7 mg BID
[22] = early 30% reduction in UPCR, week 48, 39.5 mg BID
[23] = early 35% reduction in UPCR, week 2, 39.5 mg BID
[24] = early 35% reduction in UPCR, week 6, 23.7 mg BID
[25] = early 35% reduction in UPCR, week 8, 23.7 mg BID
[26] = early 35% reduction in UPCR, week 8, 39.5 mg BID
[27] = early 35% reduction in UPCR, week 12, 23.7 mg BID
[28] = early 35% reduction in UPCR, week 12, 39.5 mg BID
[29] = early 35% reduction in UPCR, week 16, 23.7 mg BID
[30] = early 35% reduction in UPCR, week 16, 39.5 mg BID
[31] = early 35% reduction in UPCR, week 20, 23.7 mg BID
[32] = early 35% reduction in UPCR, week 24, 23.7 mg BID
[33] = early 35% reduction in UPCR, week 24, 39.5 mg BID
[34] = early 35% reduction in UPCR, week 26, 23.7 mg BID
[35] = early 35% reduction in UPCR, week 26, 39.5 mg BID
[36] = early 35% reduction in UPCR, week 36, 23.7 mg BID
[37] = early 35% reduction in UPCR, week 36, 39.5 mg BID
[38] = early 35% reduction in UPCR, week 48, 23.7 mg BID

C=C/C=C/C[C@@H](C)[C@@H](O)[C@H]1C(=O)N[C@@H](CC)C(=O)N(C)CC(=O)N(C)[C@@H](CC(C)C)C(=O)N[C@@H](C(C)C)C(=O)N(C)[C@@H](CC(C)C)C(=O)N[C@@H](C)C(=O)N[C@H](C)C(=O)N(C)[C@@H](CC(C)C)C(=O)N(C)[C@@H](CC(C)C)C(=O)N(C)[C@@H](C(C)C)C(=O)N1C [voclosporin]
No Week 48 Partial Remission Early Drop [1]: 8 | No Week 48 Partial Remission No Early Drop [1]: 4 | No Week 48 Partial Remission No Early Drop [2]: 4 | Week 48 Partial Remission No Early Drop [2]: 1 | Early Reduction No [3]: 4 | No Week 48 Partial Remission Early Drop [3]: 10 | No Week 48 Partial Remission No Early Drop [3]: 3 | Week 48 Partial Remission No Early Drop [3]: 1 | Early Reduction No [4]: 8 | Week 48 Partial Remission No Early Drop [4]: 2 | Early Reduction No [5]: 2 | No Week 48 Partial Remission Early Drop [5]: 9 | No Week 48 Partial Remission No Early Drop [5]: 2 | Early Reduction No [6]: 9 | No Week 48 Partial Remission Early Drop [6]: 7 | No Week 48 Partial Remission No Early Drop [6]: 9 | No Week 48 Partial Remission Early Drop [7]: 11 | Week 48 Partial Remission Early Drop [7]: 31 | Week 48 Partial Remission No Early Drop [7]: 29 | No Week 48 Partial Remission Early Drop (early 30% reduction in UPCR, week 4, 23.7 mg BID): 11 | Week 48 Partial Remission No Early Drop (early 30% reduction in UPCR, week 4, 39.5 mg BID): 16 | No Week 48 Partial Remission Early Drop [8]: 10 | No Week 48 Partial Remission No Early Drop [8]: 8 | Week 48 Partial Remission No Early Drop [8]: 10 | Week 48 Partial Remission No Early Drop (early 30% reduction in UPCR, week 6, 39.5 mg BID): 16 | No Week 48 Partial Remission Early Drop [9]: 10 | No Week 48 Partial Remission No Early Drop [9]: 9 | Week 48 Partial Remission No Early Drop [9]: 7 | Early Reduction No [10]: 11 | No Week 48 Partial Remission No Early Drop [10]: 4 | Week 48 Partial Remission No Early Drop [10]: 7 | No Week 48 Partial Remission No Early Drop (early 30% reduction in UPCR, week 12, 23.7 mg BID): 7 | Early Reduction No [11]: 11 | No Week 48 Partial Remission No Early Drop [11]: 4 | Week 48 Partial Remission No Early Drop [11]: 7 | Early Reduction No [12]: 10 | No Week 48 Partial Remission Early Drop [12]: 11 | No Week 48 Partial Remission No Early Drop [12]: 7 | Week 48 Partial Remission No Early Drop [12]: 3 | No Week 48 Partial Remission No Early Drop [13]: 7 | Week 48 Partial Remission No Early Drop [13]: 8 | Early Reduction No [14]: 10 | No Week 48 Partial Remission Early Drop [14]: 9 | No Week 48 Partial Remission No Early Drop [14]: 7 | Week 48 Partial Remission No Early Drop [14]: 3 | Early Reduction No (early 30% reduction in UPCR, week 20, 39.5 mg BID): 10 | Early Reduction No [15]: 4 | No Week 48 Partial Remission Early Drop [15]: 11 | No Week 48 Partial Remission No Early Drop [15]: 3 | Week 48 Partial Remission No Early Drop [15]: 1 | No Week 48 Partial Remission No Early Drop [16]: 7 | Week 48 Partial Remission No Early Drop [16]: 9 | No Week 48 Partial Remission Early Drop [17]: 7 | Week 48 Partial Remission No Early Drop [17]: 1 | Early Reduction No [18]: 8 | No Week 48 Partial Remission Early Drop [18]: 11 | Week 48 Partial Remission No Early Drop [18]: 3 | Early Reduction No [19]: 4 | No Week 48 Partial Remission Early Drop [19]: 10 | No Week 48 Partial Remission No Early Drop [19]: 3 | Week 48 Partial Remission No Early Drop [19]: 1 | Early Reduction No [20]: 9 | No Week 48 Partial Remission Early Drop [20]: 11 | No Week 48 Partial Remission No Early Drop [20]: 7 | Week 48 Partial Remission No Early Drop [20]: 2 | Early Reduction No [21]: 3 | No Week 48 Partial Remission Early Drop [21]: 8 | No Week 48 Partial Remission No Early Drop [21]: 3 | Early Reduction No [22]: 11 | No Week 48 Partial Remission No Early Drop [22]: 11 | Early Reduction Yes [23]: 39 | No Week 48 Partial Remission Early Drop [23]: 11 | Week 48 Partial Remission No Early Drop [23]: 32 | No Week 48 Partial Remission Early Drop (early 35% reduction in UPCR, week 4, 23.7 mg BID): 11 | No Week 48 Partial Remission No Early Drop (early 35% reduction in UPCR, week 4, 39.5 mg BID): 8 | No Week 48 Partial Remission Early Drop [24]: 9 | No Week 48 Partial Remission No Early Drop [24]: 9 | Week 48 Partial Remission No Early Drop (early 35% reduction in UPCR, week 6, 39.5 mg BID): 16 | No Week 48 Partial Remission Early Drop [25]: 9 | No Week 48 Partial Remission No Early Drop [25]: 10 | Week 48 Partial Remission No Early Drop [25]: 8 | No Week 48 Partial Remission No Early Drop [26]: 4 | Week 48 Partial Remission No Early Drop [26]: 8 | No Week 48 Partial Remission Early Drop [27]: 10 | No Week 48 Partial Remission No Early Drop [27]: 9 | Week 48 Partial Remission No Early Drop [27]: 7 | No Week 48 Partial Remission No Early Drop [28]: 4 | Week 48 Partial Remission No Early Drop [28]: 10 | Early Reduction No [29]: 11 | No Week 48 Partial Remission Early Drop [29]: 11 | No Week 48 Partial Remission No Early Drop [29]: 7 | Week 48 Partial Remission No Early Drop [29]: 4 | No Week 48 Partial Remission No Early Drop [30]: 7 | Week 48 Partial Remission No Early Drop [30]: 8 | Early Reduction No [31]: 11 | No Week 48 Partial Remission Early Drop [31]: 8 | No Week 48 Partial Remission No Early Drop [31]: 8 | Week 48 Partial Remission No Early Drop [31]: 3 | Early Reduction No (early 35% reduction in UPCR, week 20, 39.5 mg BID): 11 | Early Reduction No [32]: 7 | No Week 48 Partial Remission Early Drop [32]: 8 | Week 48 Partial Remission No Early Drop [32]: 1 | No Week 48 Partial Remission No Early Drop [33]: 7 | Week 48 Partial Remission No Early Drop [33]: 9 | Early Reduction No [34]: 8 | No Week 48 Partial Remission Early Drop [34]: 7 | Week 48 Partial Remission No Early Drop [34]: 3 | Early Reduction No [35]: 11 | No Week 48 Partial Remission Early Drop [35]: 11 | No Week 48 Partial Remission Early Drop [36]: 9 | No Week 48 Partial Remission No Early Drop [36]: 4 | Week 48 Partial Remission No Early Drop [36]: 1 | Early Reduction No [37]: 9 | No Week 48 Partial Remission Early Drop [37]: 11 | No Week 48 Partial Remission No Early Drop [37]: 7 | Week 48 Partial Remission No Early Drop [37]: 2 | Early Reduction No [38]: 4 | No Week 48 Partial Remission Early Drop [38]: 7 | No Week 48 Partial Remission No Early Drop [38]: 4 | No Week 48 Partial Remission Early Drop (early 35% reduction in UPCR, week 48, 39.5 mg BID): 4

Source: patent publication US11622991B2, “Protocol for treatment of lupus nephritis” (Aurinia Pharmaceuticals Inc., priority 2017, dated 2023)
